The record followed here is patent US20230203060A1 (GENFLEET THERAPEUTICS (SHANGHAI) INC., priority 2020, published 2023).

Format in all cases: cell-based, human
Experiment [1] concerns KRAS G12C mutant NCI-H358 cells. In words: Cell proliferation inhibition experiment, 3D spheroid, CellTiter-Glo, NCI-H358. The note with it: Homo sapiens, NCI-H358, 120 h, NCI-H358 (KRAS G12C mutant) 3D spheroid, 5 days with compound, CellTiter-Glo; read-out: H358 IC50. The gist of the method: (§1)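 NCI-H358 (800 cells/well, RPMI-1640) and A549 (400 cells/well, F-12K) grown overnight as 3D spheroids in 2% FBS medium, then exposed 5 days to 3.16-fold compound dilutions at 0.1% DMSO. Viability measured by CellTiter-Glo luminescence; inhibition relative to DMSO and medium blank, IC50 from four-parameter fit.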
A general note: ATP-based viability assays read luminescence as a measure of living cells.

Experiment [2] has as its system A549 cells (KRAS G12S mutant). In words: Cell proliferation inhibition experiment, 3D spheroid, CellTiter-Glo, A549. Conditions: Homo sapiens, A549, 120 h, A549 (KRAS G12S mutant) 3D spheroid, 5 days with compound, CellTiter-Glo; read-out: A549 IC50. The gist of the method:
as §1

Experiment [3] relates to KRAS G12C mutant MIA PaCa-2 cells. The experiment is described as follows: Cell proliferation inhibition experiment, 3D spheroid, CellTiter-Glo, MIA PaCa-2. Conditions: Homo sapiens, MIA PaCa-2, 120 h, 3D cell model in 384-well spheroid plate, 5 days, CellTiter-Glo; read-out: MIA-PaCa2 IC50. The gist of the method: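 200 MIA PaCa-2 cells/well grown overnight as 3D spheroids, then exposed to 3.16-fold compound dilutions (0.1% DMSO final) for 5 days. Viability read by CellTiter-Glo luminescence; inhibition calculated against DMSO and medium-only controls, and IC50 fitted by four-parameter model.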

One may read the IC50 as the concentration that gives 50% inhibition. As for `C=CC(=O)N1CCN2C(=O)c3c(N4C[C@H](N5CCN(C)CC5)CC4(C)C)nc(-c4c(O)cccc4F)c(Cl)c3OC[C@H]2C1` (single isomer, unassigned) [Z469-2], the IC50 in experiment [1] turned out to be 2 nM; in experiment [2] it was 8460 nM; in experiment [3], 4 nM.

As for `C=CC(=O)N1CCN2C(=O)c3c(N4C[C@@H](N5CCC5)CC4(C)C)nc(-c4ccccc4F)c(Cl)c3OC[C@H]2C1` (single isomer, unassigned) [Z471-1], the 50% inhibitory concentration (IC50) in experiment [1] came to 7 nM; in experiment [2] it was 2770 nM; in experiment [3], 42 nM.

Consider `C=CC(=O)N1CCN2C(=O)c3c(N4C[C@@H](N(C)C)CC4(C)C)nc(-c4cccc(C)c4F)c(Cl)c3OC[C@H]2C1` (single isomer, unassigned) [Z472-1], for which the values for the IC50 in experiment [1], in experiment [2] and in experiment [3] were 16 nM, 1740 nM and 74 nM, respectively.

For `C=CC(=O)N1CCN2C(=O)c3c(N4C[C@H](N(C)C)CC4(C)C)nc(-c4cccc(C)c4F)c(Cl)c3OC[C@H]2C1` (single isomer, unassigned) [Z472-2], the IC50 came out at 8 nM in experiment [1], 1650 nM in experiment [2] and 53 nM in experiment [3].

For `C=CC(=O)N1CCN2C(=O)c3c(N4C[C@@H](N5CCN(C)CC5)CC4(C)C)nc(-c4ccccc4F)c(F)c3OC[C@H]2C1` (single isomer, unassigned) [Z474-1], the 50% inhibitory concentration (IC50) in experiment [1] came out at 8.3 nM; in experiment [2], 7950 nM; in experiment [3], 13 nM.

For the compound `C=CC(=O)N1CCN2C(=O)c3c(N4C[C@H](N(C)C)CC4(C)C)nc(-c4c(F)ccc(F)c4O)c(Cl)c3OC[C@H]2C1` (single isomer, unassigned) [Z475-2], the IC50 in experiment [1] was 8 nM; in experiment [2], 5860 nM; in experiment [3] it was 15 nM.

For `C=CC(=O)N1CCN2C(=O)c3c(N4C[C@@H](N(C)CC(F)(F)F)CC4(C)C)nc(-c4ccccc4F)c(Cl)c3OC[C@H]2C1` (single isomer, unassigned) [Z491], the concentration for half-maximal inhibition (IC50) in experiment [1] is 1.4 nM; in experiment [2], 4530 nM; in experiment [3], 7 nM.

In the case of `C=CC(=O)N1CCN2C(=O)c3c(N4C[C@H](N(C)CC(F)(F)F)CC4(C)C)nc(-c4ccccc4F)c(Cl)c3OC[C@H]2C1` (single isomer, unassigned) [Z493], the concentration for half-maximal inhibition (IC50) in experiment [1] stood at 27 nM; in experiment [2], 7240 nM; in experiment [3], 112 nM.

With `C=CC(=O)N1CCN2C(=O)c3c(N4C[C@H](N5CC(F)(F)C5)CC4(C)C)nc(-c4ccccc4F)c(Cl)c3OC[C@H]2C1` (single isomer, unassigned) [Z525-1], the half-maximal inhibitory concentration (IC50) came out at 281 nM in experiment [1], 2840 nM in experiment [2] and 478 nM in experiment [3].

For `C=CC(=O)N1CCN2C(=O)c3c(N4C[C@@H](N5CC(F)(F)C5)CC4(C)C)nc(-c4ccccc4F)c(Cl)c3OC[C@H]2C1` (single isomer, unassigned) [Z525-2], the IC50 in experiment [1] amounted to 7.8 nM; in experiment [2], 5740 nM; in experiment [3], 14 nM.

In the case of `C=CC(=O)N1CCN2C(=O)c3c(N4C[C@H](N5CC(C(F)(F)F)C5)CC4(C)C)nc(-c4ccccc4F)c(Cl)c3OC[C@H]2C1` (single isomer, unassigned) [Z608-1], the values for the IC50 in experiment [1], in experiment [2] and in experiment [3] were 99.5 nM, 2950 nM and 330 nM, respectively.

For the compound `C=CC(=O)N1CCN2C(=O)c3c(N4C[C@H](N5CC(C#N)C5)CC4(C)C)nc(-c4ccccc4F)c(Cl)c3OC[C@H]2C1` (single isomer, unassigned) [Z637-1], the values for the IC50 in experiment [1], in experiment [2] and in experiment [3] were 125 nM, 2970 nM and 549 nM, respectively.

In the case of `C=CC(=O)N1CCN2C(=O)c3c(N4C[C@@H](N5CC(C#N)C5)CC4(C)C)nc(-c4ccccc4F)c(Cl)c3OC[C@H]2C1` (single isomer, unassigned) [Z637-2], the IC50 is 4.5 nM in experiment [1], 2520 nM in experiment [2] and 10 nM in experiment [3].

For `C=CC(=O)N1CCN2C(=O)c3c(N4C[C@@H](N(C)C)CC4(C)C)nc(-c4ccccc4)c(Cl)c3OC[C@H]2C1` (single isomer, unassigned) [Z655-1], the IC50 in experiment [1] came out at 38 nM; in experiment [2], 3320 nM; in experiment [3], 113 nM.
